According to US20240376514A1, “BACTERIAL BIOSENSORS FOR MONITORING AND DETECTION OF NAPHTHENIC ACIDS IN THE ENVIRONMENT” (THE GOVERNORS OF ATHABASCA UNIVERSITY, priority 2021, published 2024):

Columns and labels:
atuA = atuA promoter-luxCDABE biosensor gene expression; assay type: cell-based; conditions: Pseudomonas OST1909
Method: Routine microbiology and gene expression assays using 96 well plates were performed to grow the biosensor strains in the presence of environmental water samples, and the light output from the biosensor was used as a proxy to indicate the concentration of naphthenic acids in the water.
In the fourth step, all plasmid-encoded genetic circuits were introduced back into Pseudomonas OST1909 for validation.
“SIGMA” and “Acros” indicate two sources of primarily acyclic NA mixtures. […] A post hoc Tukey HSD test was conducted with each compound and mixture to test significant relationships between each group (α=0.05, n=3).

atu operon = conditions: stated as known; cited from earlier work

SMILES	induction of the atu operon / atu genes (atuA)	induction of atu genes in Pseudomonas aeruginosa by acyclic terpenes (atu operon)
CC(C)=CCCC(C)CC(=O)O (centres unmarked) [citronellic acid]	induce expression	–
CC(C)=CCCC(C)CCO (centres unmarked) [citronellol]	do not induce	induced
CC(C)=CCC/C(C)=C/CO [geraniol]	do not induce	induced
